Measurements: patent publication US20130123357A1, “Methods for Providing Enhanced Resveratrol Activity Using 4-Acetoxy-Resveratrol” (BRIGHAM YOUNG UNIVERSITY, priority 2010, published 2013)

What was measured:
lysyl oxidase (LOX) = experiment: Gene array qPCR, human dermal equivalent: LOX; format: cell-based; conditions: 1.0% 4AR in DMSO, human skin equivalent, 24 hours, mRNA by qPCR
From the text: (§1) In this gene array experiment, we examined the ability of 4AR at a one percent concentration in DMSO (where 100% DMSO served as the vehicle) to either stimulate or inhibit several important genes and quantify directly the transcribed messenger RNA (mRNA) levels by Taqman real time PCR. The test material was placed onto a biological barrier (human dermal equivalent) using a MatTek “ready-to-use” in vitro organotypic tissue equivalent, based on well-documented and validated protocols, using the EpiDerm™ Model EPI-200 Kit. The MatTek kits uses normal (non-transformed) donated human cells as the basis for all of its tissue equivalents. These cells are grown (cultured) in standard Millipore Millicell™ Single Well Tissue Culture Plate Inserts at the air liquid interface or ALI. Apical (top) surface of tissue is exposed to air allowing for direct application of test articles. […] Once the 4 AR test material penetrated the human skin barrier equivalent the gene chip was activated and subsequently mRNA levels were quantified and the results represent stimulation or inhibition of a specific gene.
(§2) To investigate the effects of 4AR on the expression of genes associated with the extracellular matrix (ECM) of the skin, qPCR experiments were conducted using the tissue cultures (model system described above) with subsequent quantification of mRNA levels from […] tissue/cells. […]

[1] = test system: S100 Calcium binding protein A9; experiment: Gene array qPCR, human dermal equivalent: S100 A9; format: cell-based; conditions: 1.0% 4AR in DMSO, human skin equivalent, 24 hours, mRNA by qPCR
From the text: as §1, §2

Cytokeratin 2E = experiment: Gene array qPCR, human dermal equivalent: Cytokeratin 2E; format: cell-based; conditions: 1.0% 4AR in DMSO, human skin equivalent, 24 hours, mRNA by qPCR
From the text: as §1, §2

[2] = test system: Procollagen III (alpha 1); experiment: Gene array qPCR, human dermal equivalent: Procollagen III; format: cell-based; conditions: 1.0% 4AR in DMSO, human skin equivalent, 24 hours, mRNA by qPCR
From the text: as §1, §2

[3] = test system: S100 Calcium binding protein A8; experiment: Gene array qPCR, human dermal equivalent: S100 A8; format: cell-based; conditions: 1.0% 4AR in DMSO, human skin equivalent, 24 hours, mRNA by qPCR
From the text: as §1, §2

[4] = test system: IL-1RII (interleukin 1RII); experiment: Gene array qPCR, human dermal equivalent: IL-1RII; format: cell-based; conditions: 1.0% 4AR in DMSO, human skin equivalent, 24 hours, mRNA by qPCR
From the text: as §1, §2

IL-8 (interleukin 8) = experiment: Gene array qPCR, human dermal equivalent: IL-8; format: cell-based; conditions: 1.0% 4AR in DMSO, human skin equivalent, 24 hours, mRNA by qPCR
From the text: as §1, §2

IL-6 (interleukin 6) = experiment: Gene array qPCR, human dermal equivalent: IL-6; format: cell-based; conditions: 1.0% 4AR in DMSO, human skin equivalent, 24 hours, mRNA by qPCR
From the text: as §1, §2

Nerve growth factor = experiment: Gene array qPCR, human dermal equivalent: Nerve growth factor; format: cell-based; conditions: 1.0% 4AR in DMSO, human skin equivalent, 24 hours, mRNA by qPCR
From the text: as §1, §2

JunD = experiment: Gene array qPCR, human dermal equivalent: JunD; format: cell-based; conditions: 1.0% 4AR in DMSO, human skin equivalent, 24 hours, mRNA by qPCR
From the text: as §1, §2

[5] = test system: human dermal monolayer fibroblasts; experiment: Collagen deposition by ELISA for Human Type I collagen C-terminal propeptide; format: cell-based; conditions: approximately 9 μM, 48 hours, vehicle 0.1% DMSO
Protocol: 4′-Acetoxy-resveratrol was tested to determine whether it can stimulate collagen deposition in human monolayer dermal fibroblasts in the following examples. In this assay, we first determined the toxicity of the test materials (untreated cells, positive control-ascorbate, vehicle=0.1% DMSO, and a range of the 4′-acetoxy-resveratrol molecule, from approximately 10 nM to 10 μM).
The human dermal monolayer fibroblasts were exposed to the test materials for approximately 48 hours. Thereafter, the samples were processed for MTT and collagen deposition, etc.
Collagen deposition by ELISA for Human Type I collagen C-terminal propeptide was determined. Dermal fibroblasts synthesize primarily type I collagen, and the cleavage of the C-terminal propeptide is required for deposition into fibrils within the extracellular matrix. […] The amount of cleaved propeptide is directly proportional to the amount of type I collagen deposited, and can be precisely quantified using purified standards and a commercial ELISA kit (Takara Mirus, Inc., Cat. # TAK-MK-101). After 48 hours in the presence of the test materials or controls, culture medium supernatants were removed and immediately analyzed using the ELISA kit according to manufacturer's instructions using a Molecular Devices Vmax plate 96 well plate reader and SoftMax software. […]

[6] = test system: Tissue Inhibitor of metalloproteinases 2 (TIMP2); experiment: Gene array qPCR, human dermal equivalent: TIMP2; format: cell-based; conditions: 1.0% 4AR in DMSO, human skin equivalent, 24 hours, mRNA by qPCR
From the text: as §1, §2

COX 2 (PTGS2) = experiment: Gene array qPCR, human dermal equivalent: COX 2; format: cell-based; conditions: 1.0% 4AR in DMSO, human skin equivalent, 24 hours, mRNA by qPCR
From the text: as §1, §2

SIRT1 (Sirtuin 1) = experiment: Gene array qPCR, human dermal equivalent: SIRT1; format: cell-based; conditions: 1.0% 4AR in DMSO, human skin equivalent, 24 hours
From the text: as §1, §2

Elastin = experiment: Gene array qPCR, human dermal equivalent: Elastin; format: cell-based; conditions: 1.0% 4AR in DMSO, human skin equivalent, 24 hours, mRNA by qPCR
From the text: as §1, §2

[7] = test system: TNFRSF1A (Tumor necrosis factor receptor superfamily, member 1A); experiment: Gene array qPCR, human dermal equivalent: TNFRSF1A; format: cell-based; conditions: 1.0% 4AR in DMSO, human skin equivalent, 24 hours, mRNA by qPCR
From the text: as §1, §2

Metallothionein 1 = experiment: Gene array qPCR, human dermal equivalent: Metallothionein 1; format: cell-based; conditions: 1.0% 4AR in DMSO, human skin equivalent, 24 hours, mRNA by qPCR
From the text: as §1, §2

[8] = test system: Superoxide dismutase 1, soluble; experiment: Gene array qPCR, human dermal equivalent: SOD1; format: cell-based; conditions: 1.0% 4AR in DMSO, human skin equivalent, 24 hours, mRNA by qPCR
From the text: as §1, §2

[9] = Shelf-life stability of the synthesized material; format: physicochemical
From the text: The synthetic method described above uses a direct, efficient synthesis at a low cost, and results in improved stability (longer shelf life) where it remains a white crystalline material for over 2 years, as well as higher biological activity (increase absorption, lower dose and longer half-life) with various cosmetic, nutraceuticals (nutritional supplements) and pharmaceutical applications, including (a) anti-aging, anti-oxidant, (b) anti-inflammatory, (c) anti-cancer, (d) neuroprotection (for improved brain health), (e) cardiovascular health, (f) prostate health and (g) skin health, as described below in the following examples.

IL-1a (interleukin 1a) = experiment: Gene array qPCR, human dermal equivalent: IL-1a; format: cell-based; conditions: 1.0% 4AR in DMSO, human skin equivalent, 24 hours, mRNA by qPCR
From the text: as §1, §2

Desmocollin 1 = experiment: Gene array qPCR, human dermal equivalent: Desmocollin 1; format: cell-based; conditions: 1.0% 4AR in DMSO, human skin equivalent, 24 hours, mRNA by qPCR
From the text: as §1, §2

[10] = test system: TGF (transforming growth factor) beta; experiment: Gene array qPCR, human dermal equivalent: TGF beta; format: cell-based; conditions: 1.0% 4AR in DMSO, human skin equivalent, 24 hours, mRNA by qPCR
From the text: as §1, §2

Metallothionein 2 = experiment: Gene array qPCR, human dermal equivalent: Metallothionein 2; format: cell-based; conditions: 1.0% 4AR in DMSO, human skin equivalent, 24 hours, mRNA by qPCR
From the text: as §1, §2

Catalase = experiment: Gene array qPCR, human dermal equivalent: Catalase; format: cell-based; conditions: 1.0% 4AR in DMSO, human skin equivalent, 24 hours, mRNA by qPCR
From the text: as §1, §2

CC(=O)Oc1ccc(C=Cc2cc(O)cc(O)c2)cc1 [4AR, 3,5-dihydroxy-4′-acetoxy stilbene]
Lysyl oxidase increased by (lysyl oxidase (LOX)): 1.9-fold
S100 Calcium binding protein A9 decreased by [1]: 1.6-fold
CK 2E decreased by (Cytokeratin 2E): 3.5-fold with
Procollagen III increased by [2]: by 2.2-fold
S100 Calcium binding protein A8 decreased by [3]: 2.7-fold
IL-1RII decreased by [4]: 1.9-fold
IL-8 decreased by (IL-8 (interleukin 8)): 3.8-fold
IL-6 decreased by (IL-6 (interleukin 6)): 35.2-fold
Nerve growth factor increased by (Nerve growth factor): 6.7-fold
JunD increased by (JunD): 2.1-fold
increase of collagen deposition compared to vehicle control [5]: 65%
TIMP2 increased by [6]: 1.3-fold
COX 2 decreased by (COX 2 (PTGS2)): 1.7-fold
SIRT1 mRNA expression increased by (SIRT1 (Sirtuin 1)): 3.3-fold
Elastin increased by (Elastin): 2.8-fold
TNFRSF1A decreased by [7]: 1.4-fold
Metallothionein 1 increased by (Metallothionein 1): 64.0-fold
Superoxide dismutase 1, soluble increased by [8]: 1.6-fold
stability (shelf life): remains a white crystalline material [9]: over 2 years
IL-1a decreased by (IL-1a (interleukin 1a)): 10.1-fold
Desmocollin 1 decreased by (Desmocollin 1): by 2.4-fold
TGF beta increased by [10]: 2.0-fold
Metallothionein 2 increased by (Metallothionein 2): 3.4-fold
Catalase increased by (Catalase): 1.6-fold
